Experimental data as given in PubChem BioAssay (NCI).
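Briefly, cells in 96-well plates were exposed to five compound concentrations for 48 h, and endpoints were estimated by linear interpolation. The concentration for 50% growth inhibition is given as GI50. TGI denotes the concentration required for complete inhibition of growth.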

Tests used:
Assay in all cases: NCI anticancer screen, dose series, 48 h
HS 578T breast = system: HS 578T breast
SK-MEL-5 melanoma = system: SK-MEL-5 melanoma
UACC-62 melanoma = system: UACC-62 melanoma
KM12 colon = system: KM12 colon
U251 CNS = system: U251 CNS
NCI-H460 lung = system: NCI-H460 lung
A549 NSCLC = system: A549 NSCLC
HCT-116 colon = system: HCT-116 colon
MALME-3M melanoma = system: MALME-3M melanoma
COLO 205 colon = system: COLO 205 colon

| Compound | GI50 (HS 578T breast) | TGI (HS 578T breast) | GI50 (SK-MEL-5 melanoma) | TGI (SK-MEL-5 melanoma) | GI50 (UACC-62 melanoma) | TGI (UACC-62 melanoma) | GI50 (KM12 colon) | TGI (KM12 colon) | GI50 (U251 CNS) | TGI (U251 CNS) | GI50 (NCI-H460 lung) | TGI (NCI-H460 lung) | GI50 (A549 NSCLC) | TGI (A549 NSCLC) | GI50 (HCT-116 colon) | TGI (HCT-116 colon) | GI50 (MALME-3M melanoma) | TGI (MALME-3M melanoma) | GI50 (COLO 205 colon) | TGI (COLO 205 colon) |
| --- | --- | --- | --- | --- | --- | --- | --- | --- | --- | --- | --- | --- | --- | --- | --- | --- | --- | --- | --- | --- |
| Fc1ccc(Nc2ccnc(N3CCN(c4ccnc5cc(Cl)ccc45)CC3)n2)cc1 | 2.83 µM | 39 µM | 1.53 µM | 2.96 µM | 1.73 µM | 4.53 µM | 2.33 µM | 6.66 µM | 1.87 µM | 5.27 µM | 1.74 µM | 4.54 µM | 2.66 µM | > 100 µM | 1.97 µM | 5.24 µM | – | – | – | – |
| C=C1C(=O)O[C@H]2[C@H]1CC/C(COC(=O)NCCc1ccc(Br)cc1)=C\CC[C@@]1(C)O[C@@H]21 | 2.41 µM | 7.15 µM | 1.71 µM | 3.22 µM | – | – | 1.95 µM | 4.46 µM | 1.4 µM | 2.75 µM | 2.06 µM | 4.64 µM | 2.59 µM | 6.17 µM | 0.477 µM | 1.81 µM | 2.09 µM | 3.77 µM | 1.82 µM | 3.57 µM |
| COC(=O)/C(=C1\OC(=O)C(c2ccc(Cl)cc2)=C1O)c1ccc(Cl)cc1 | – | – | – | – | – | 56.9 µM | – | 67.8 µM | – | > 100 µM | – | 92.4 µM | – | 84.3 µM | – | 50.4 µM | – | 55.7 µM | – | 45 µM |
| O/N=C1/C(=C/c2ccc(Br)cc2)CCCC1C(NO)c1ccc(Br)cc1 (stereo not given) | – | – | – | – | – | 27.8 µM | – | 38.3 µM | – | 45.3 µM | – | – | – | 32.1 µM | – | 31.3 µM | – | 31.9 µM | – | 28.7 µM |
| CCN(CC(O)COc1ccc2c(c1)[n+]([O-])nc(N)[n+]2[O-])C(C)=O (stereo not given) | – | > 100 µM | – | > 100 µM | – | > 100 µM | – | > 100 µM | – | > 100 µM | – | > 100 µM | – | > 100 µM | – | > 100 µM | – | – | – | > 100 µM |
| O=Cc1cc2sc(C=O)cc2s1 | – | – | – | > 100 µM | – | > 100 µM | – | > 100 µM | – | > 100 µM | – | > 100 µM | – | > 100 µM | – | > 100 µM | – | > 100 µM | – | > 100 µM |
| Cc1c(-c2c(F)cc(C(N)=O)c3[nH]c4c(c23)CC[C@H](C(C)(C)O)C4)cccc1-n1c(=O)c2cccc(F)c2n(C)c1=O | 4.62 µM | > 100 µM | 3.83 µM | 16.2 µM | 3 µM | > 100 µM | 0.399 µM | > 100 µM | 6.07 µM | > 100 µM | 3.43 µM | > 100 µM | 2.05 µM | > 100 µM | 2.66 µM | > 100 µM | 1.84 µM | 28.2 µM | – | – |
| CC1O[C@@H]2CCCCC(=O)[C@]2(C)[C@H]1C (stereo not given in full) | – | – | – | > 100 µM | – | > 100 µM | – | > 100 µM | – | > 100 µM | – | > 100 µM | – | > 100 µM | – | > 100 µM | – | > 100 µM | – | > 100 µM |
| Cc1cc(NCCCCCCCCNc2cc(C)nc3cc(N(C)C)ccc23)c2ccc(N(C)C)cc2n1 | – | – | – | – | – | – | – | 19.6 µM | – | 9.45 µM | – | 19.5 µM | – | 21.8 µM | – | 14 µM | – | – | – | 5.5 µM |
| Cc1ccccc1C1SCc2nc3ccccc3n21 (stereo not given) | – | – | – | > 100 µM | – | > 100 µM | – | > 100 µM | – | > 100 µM | – | – | – | > 100 µM | – | > 100 µM | – | > 100 µM | – | > 100 µM |
| Cc1cc(S(=O)(=O)Nc2nc3ccccc3s2)c(SCc2ccccc2)cc1Cl | 20.2 µM | 62 µM | 12.5 µM | 25 µM | 10.8 µM | 27.9 µM | 18.8 µM | 61.9 µM | 13.6 µM | 26.4 µM | 21.4 µM | > 100 µM | 13.9 µM | 31.8 µM | 15.1 µM | 28.4 µM | – | – | 30 µM | 68.4 µM |
| C/C(COc1ccccc1)=N\NC(N)=S | – | – | – | > 100 µM | – | > 100 µM | – | > 100 µM | – | > 100 µM | – | – | – | > 100 µM | – | > 100 µM | – | > 100 µM | – | > 100 µM |
| CN1C(=O)CC(CC(=O)C2CCCCC2=O)CC1=O (stereo not given) | – | – | – | – | – | > 100 µM | – | > 100 µM | – | > 100 µM | – | > 100 µM | – | > 100 µM | – | > 100 µM | – | > 100 µM | – | > 100 µM |
| NC1=NN(c2ccccc2)C(=O)C1/C(=N\NC(=O)c1cc2ccccc2cc1O)C(=O)Nc1ccc(Cl)c(Cl)c1 (stereo not given) | – | – | – | 79.4 µM | – | 44.1 µM | – | > 100 µM | – | > 100 µM | – | 85.5 µM | – | > 100 µM | – | > 100 µM | – | 97.6 µM | – | 36.6 µM |
| Cc1ccc2c(c1)n([O-])c(C(F)(F)F)c(C(=O)c1ccco1)[n+]2=O | 1.2 µM | 7.73 µM | 0.556 µM | 1.3 µM | 0.723 µM | 1.61 µM | 0.667 µM | 2.49 µM | 0.632 µM | 5.15 µM | 0.262 µM | 1.52 µM | 0.965 µM | 3.35 µM | 0.994 µM | 12.7 µM | – | – | 0.816 µM | 2.06 µM |
| Clc1cc2ns[s+]c2cc1Cl | – | – | – | > 52 µM | – | > 100 µM | – | > 100 µM | – | > 100 µM | – | > 100 µM | – | > 100 µM | – | > 100 µM | – | > 100 µM | – | > 100 µM |
| CC1=NN(c2ccccc2)C(=O)C1N=Nc1ccc(Br)cc1C (stereo not given) | – | – | – | > 100 µM | – | > 100 µM | – | > 100 µM | – | > 100 µM | – | > 100 µM | – | > 100 µM | – | > 100 µM | – | > 100 µM | – | > 100 µM |
| Cc1c2cc[n+](C)cc2c(C)c2c1[nH]c1ccc(OC(C)(C)C)cc12 | – | – | – | > 100 µM | – | > 100 µM | – | > 100 µM | – | > 100 µM | – | > 100 µM | – | > 100 µM | – | > 100 µM | – | > 100 µM | – | > 100 µM |
| O=C(NNC(=O)/C(=C/c1cccc([N+](=O)[O-])c1)NC(=O)c1ccccc1)Nc1ccc(Cl)cc1 | – | – | – | 25.7 µM | – | 30.3 µM | – | 24.7 µM | – | 28.4 µM | – | 29.9 µM | – | 31.4 µM | – | 26.2 µM | – | 30 µM | – | 26.8 µM |
